Columns and labels:
OGA = target: T1, OGA (Homo sapiens, UniProt O60502); assay: OGA cellular assay (ICC detection of O-GlcNAcylated proteins in HEK293 cells inducible for P301L mutant human Tau); type: cell-based; settings: 6 hours incubation; for Emax: HEK293, HEK293 cells inducible for P301L mutant human Tau; for EC50: read-out: Cellular hOGA, pEC50 (converted)
T1 construct: HEK293 cells inducible for P301L mutant human Tau (isoform 2N4R) were established at Janssen; endogenous in cells; host or cells: HEK293 cells inducible for P301L mutant human Tau (2N4R)
T1 sequence (O60502 1-916): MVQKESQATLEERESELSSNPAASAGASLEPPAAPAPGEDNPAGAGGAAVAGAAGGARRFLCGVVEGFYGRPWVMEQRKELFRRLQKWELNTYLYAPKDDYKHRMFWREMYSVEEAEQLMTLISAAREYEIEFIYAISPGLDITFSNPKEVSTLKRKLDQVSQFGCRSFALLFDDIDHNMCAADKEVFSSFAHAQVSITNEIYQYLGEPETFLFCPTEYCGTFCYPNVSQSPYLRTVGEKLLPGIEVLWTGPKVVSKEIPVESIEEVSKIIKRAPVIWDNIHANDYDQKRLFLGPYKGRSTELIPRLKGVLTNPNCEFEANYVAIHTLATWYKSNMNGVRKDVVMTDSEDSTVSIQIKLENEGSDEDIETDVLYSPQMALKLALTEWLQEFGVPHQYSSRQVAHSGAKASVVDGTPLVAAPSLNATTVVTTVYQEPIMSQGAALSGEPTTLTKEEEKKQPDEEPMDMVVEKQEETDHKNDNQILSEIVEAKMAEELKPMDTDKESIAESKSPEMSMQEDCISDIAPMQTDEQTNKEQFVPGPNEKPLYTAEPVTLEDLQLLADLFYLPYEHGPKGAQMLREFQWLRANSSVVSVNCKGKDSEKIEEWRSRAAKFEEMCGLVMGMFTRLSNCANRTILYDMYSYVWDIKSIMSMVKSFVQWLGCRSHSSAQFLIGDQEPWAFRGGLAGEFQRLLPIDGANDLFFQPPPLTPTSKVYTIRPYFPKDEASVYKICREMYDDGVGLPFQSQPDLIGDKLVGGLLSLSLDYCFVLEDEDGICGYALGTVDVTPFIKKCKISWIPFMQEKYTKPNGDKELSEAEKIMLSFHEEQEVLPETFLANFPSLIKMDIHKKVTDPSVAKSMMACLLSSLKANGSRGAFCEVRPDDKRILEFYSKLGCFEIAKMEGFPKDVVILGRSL
Protocol: HEK293 cells inducible for P301L mutant human Tau (isoform 2N4R) were established at Janssen. Thiamet-G was used for both plate validation (high control) and as reference compound (reference EC50 assay validation). OGA inhibition is evaluated through the immunocytochemical (ICC) detection of O-GlcNAcylated proteins by the use of a monoclonal antibody (CTD110.6; Cell Signaling, #9875) detecting 0-GlcNAcylated residues as previously described (Dorfmueller et al. 2010 Chemistry & biology, 17:1250). Inhibition of OGA will result in an increase of 0-GlcNAcylated protein levels resulting in an increased signal in the experiment. Cell nuclei are stained with Hoechst to give a cell culture quality control and a rough estimate of immediate compounds toxicity, if any. ICC pictures are imaged with a Perkin Elmer Opera Phenix plate microscope and quantified with the provided software Perkin Elmer Harmony 4.1.
Cells were propagated in DMEM high Glucose (Sigma, #D5796) following standard procedures. 2 days before the cell assay cells are split, counted and seeded in Poly-D-Lysine (PDL) coated 96-wells (Greiner, #655946) plate at a cell density of 12,000 cells per cm^2 (4,000 cells per well) in 100p of Assay Medium (Low Glucose medium is used to reduce basal levels of GlcNAcylation) (Park et al. 2014 The Journal of biological chemistry 289:13519). At the day of compound test medium from assay plates was removed and replenished with 90 μl of fresh Assay Medium. 10 μl of compounds at a 10 fold final concentration were added to the wells. Plates were centrifuged shortly before incubation in the cell incubator for 6 hours. DMSO concentration was set to 0.2%. Medium is discarded by applying vacuum. For staining of cells medium was removed and cells washed once with 100 μl D-PBS (Sigma, #D8537). From next step onwards unless other stated assay volume was always 50p and incubation was performed without agitation and at room temperature. Cells were fixed in 50 μl of a 4% paraformaldehyde (PFA, Alpha aesar, #043368) PBS solution for 15 minutes at room temperature. […] Before analysis samples were washed 2 times manually for 5 minutes in ICC base buffer.
Imaging is performed using Perkin Elmer Phenix Opera using a water 20× objective and recording 9 fields per well. Intensity readout at 488 nm is used as a measure of O-GlcNAcylation level of total proteins in wells. To assess potential toxicity of compounds nuclei were counted using the Hoechst staining. IC50-values are calculated using parametric non-linear regression model fitting. As a maximum inhibition Thiamet G at a 200 uM concentration is present on each plate. In addition, a concentration response of Thiamet G is calculated on each plate.

[1] = target: T2, recombinant human Meningioma Expressed Antigen 5 (MGEA5), also referred to as O-GlcNAcase (OGA) (Homo sapiens, UniProt O60502); assay: OGA biochemical assay (inhibition of FM-GlcNAc hydrolysis, fluorescence); settings: for Emax: read-out: Enzymatic Emax (%); for IC50: read-out: Enzymatic hOGA, pIC50 (converted)
T2 construct: Full length OGA enzyme was purchased at OriGene (cat #TP322411); purchased OriGene TP322411
T2 sequence (O60502 1-916): T1 sequence (O60502 1-916)
From the text: The assay is based on the inhibition of the hydrolysis of fluorescein mono-B-D-N-Acetyl-Glucosamine (FM-GcNAc) (Mariappa et al. 2015, Biochem J470:255) by the recombinant human Meningioma Expressed Antigen 5 (MGEA5), also referred to as O-GlcNAcase (OGA). The hydrolysis FM-GlcNAc (Marker Gene technologies, cat #M1485) results in the formation of B-D-N-glucosamineacetate and fluorescein. The fluorescence of the latter can be measured at excitation wavelength 485 nm and emission wavelength 538 nm. An increase in enzyme activity results in anincrease in fluorescence signal. Full length OGA enzyme was purchased at OriGene (cat #TP322411). The enzyme was stored in 25 mM Tris.HCl, pH 7.3, 100 mM glycine, 10% glycerol at −20° C. Thiamet G and GlcNAcStatin were tested as reference compounds (Yuzwa et al. 2008 Nature Chemical Biology 4:483; Yuzwa et al. 2012 Nature Chemical Biology 8:393). The assay was performed in 200 mM Citrate/phosphate buffer supplemented with 0.005% Tween-20. 35.6 g Na2HPO4 2H2O (Sigma, #C0759) were dissolved in 1 L water to obtain a 200 mM solution. 19.2 g citric acid (Merck, #1.06580) was dissolved in 1 L water to obtain a 100 mM solution. pH of the sodiumphosphate solution was adjusted with the citric acid solution to 7.2. The buffer to stop the reaction consists of a 500 mM Carbonate buffer, pH 11.0. 734 mg FM-GlcNAc were dissolved in 5.48 mL DMSO to obtain a 250 mM solution and was stored at −20° C. OGA was used at a 2 nM concentration and FM-GcNAc at a 100 uM final concentration. Dilutions were prepared in assay buffer.
50 nl of a compound dissolved in DMSO was dispensed on Black Proxiplate™ 384 Plus Assay plates (Perkin Elmer, #6008269) and 3 μl fl-OGA enzyme mix added subsequently. Plates were pre-incubated for 60 min at room temperature and then 2 μl FM-GlcNAc substrate mix added.
Plates were briefly centrifuged for 1 min at 1000 rpm and incubate at room temperature for 6 h. To stop the reaction 5 μl STOP buffer were added and plates centrifuge again 1 min at 1000 rpm. Fluorescence was quantified in the Thermo Scientific Fluoroskan Ascent or the PerkinElmer EnVision with excitation wavelength 485 nm and emission wavelength 538 nm.
For analysis a best-fit curve is fitted by a minimum sum of squares method. From this an IC50 value and Hill coefficient was obtained. High control (no inhibitor) and low control (saturating concentrations of standard inhibitor) were used to define the minimum and maximum values.

[2] = HEK293 cells inducible for P301L mutant human Tau

Emax (OGA; maximum = Thiamet G 200 uM) | EC50 (OGA; [2]) | Emax [1] | IC50 [1] | Cellular Emax (%) (OGA; HEK293 cells inducible for P301L mutant human Tau, maximum = Thiamet G 200 uM) | Enzymatic Emax (%) [1] | Structure (SMILES)
34% | > 1000 nM | 98% | 158 nM |  |  | COc1ccc(OC2CCN(C(C)c3ccc4c(n3)OCCO4)CC2)nc1 (stereo not drawn) [Compound 99]
68% | 331 nM | 100% | 63.1 nM |  |  | CC(C)c1ncc(OC2CCN(C(C)c3ccc4c(n3)OCCO4)CC2)cn1 (stereo not drawn) [Compound 119]
 | > 1000 nM |  | 7940 nM | −8% | 55% | COc1cc(OC2CCN(C(C)c3ccc4c(n3)OCCO4)CC2)cc(C)n1 (single isomer, unassigned) [Compound 53]
46% | > 1000 nM | 98% | 398 nM |  |  | Cc1cccnc1OC1CCN(C(C)c2ccc3c(n2)OCCO3)CC1 (stereo not drawn) [Compound 70]
87% | 251 nM | 98% | 50.1 nM |  |  | CC(c1ccc2c(n1)OCCO2)N1CCC(Oc2cnc(C3CC3)nc2)CC1 (stereo not drawn) [Compound 120]
73% | 316 nM | 101% | 20 nM |  |  | CC(c1nc2c(cc1F)OCCO2)N1CCC(Oc2ccc(C(F)(F)F)nn2)CC1 (stereo not drawn) [Compound 39]
72% | 316 nM | 94% | 15.8 nM |  |  | Cc1ccc(OC2CCN(C(C)c3nc4c(cc3F)OCCO4)CC2)nc1 (stereo not drawn) [Compound 165]
21% | > 1000 nM | 101% | 100 nM |  |  | CC(c1ccc2c(n1)OCCO2)N1CCC(Oc2ccc(C(F)(F)F)cn2)CC1 (stereo not drawn) [Compound 42]
 |  | 102% | 100 nM |  |  | Cc1cc(OC2CCN(C(C)c3ccc4c(n3)OCCO4)CC2)nc(C)n1 (stereo not drawn) [Compound 9]
72% | 67.6 nM | 96% | 7.94 nM |  |  | CC(c1nc2c(cc1F)OCCO2)N1CCC(Oc2ccc(C3CC3)nc2)CC1 (stereo not drawn) [Compound 164]
 |  |  | 2510 nM |  | 84% | Cc1cc(OC2CCN(C(C)c3ccc4c(n3)OCCO4)CC2)nc(C)n1 (single isomer, unassigned) [Compound 11]
 |  | 101% | 63.1 nM |  |  | Cc1cc(OC2CCN(C(C)c3ccc4c(n3)OCCO4)CC2)cc(C)n1 (stereo not drawn) [Compound 1]

Further lines, the molecule ahead of its results:

Structure (SMILES) | Emax (OGA; maximum = Thiamet G 200 uM) | EC50 (OGA; [2]) | Emax [1] | IC50 [1] | Cellular Emax (%) (OGA; HEK293 cells inducible for P301L mutant human Tau, maximum = Thiamet G 200 uM) | Enzymatic Emax (%) [1]
COc1cc(OC2CCN(C(C)c3nc4nc(C)sc4cc3F)CC2)cc(C)n1 (stereo not drawn) [Compound 79] | 72% | 39.8 nM | 101% | 3.16 nM |  | 
COc1cc(OC2CCN(C(C)c3ccc4sc(C)nc4n3)CC2)cc(C)n1 (stereo not drawn) [Compound 16] | 91% | 126 nM | 99% | 25.1 nM |  | 
Cc1cc(OC2CCN(C(C)c3ccc4c(c3)OCCO4)CC2)cc(C)n1 (stereo not drawn) [Compound 25] | 56% | 631 nM | 96% | 501 nM |  | 
CC(c1nc2c(cc1F)OCCO2)N1CCC(Oc2ccc(C(=O)N(C(C)C)C(C)C)nc2)CC1 (stereo not drawn) [Compound 123] | 59% | 100 nM | 93% | 12.6 nM |  | 
Cc1cc(OC2CCN(C(C)c3cnc4sc(C)nc4c3)CC2)cc(C)n1 (stereo not drawn) [Compound 40] | 59% | 631 nM | 101% | 126 nM |  | 
Cc1cnc(OC2CCN(C(C)c3nc4c(cc3F)OCCO4)CC2)c(C)n1 (stereo not drawn) [Compound 84] | 73% | 316 nM | 101% | 15.8 nM |  | 
Cc1nccnc1OC1CCN(C(C)c2nc3c(cc2F)OCCO3)CC1 (stereo not drawn) [Compound 111] | 77% | 200 nM | 98% | 50.1 nM |  | 
Cc1ccc(COC2CCN(C(C)c3nc4c(cc3F)OCCO4)CC2)cn1 (stereo not drawn) [Compound 138] | 79% | 158 nM | 100% | 20 nM |  | 
Cc1cc(OC2CCN(C(C)c3nc4c(cc3F)OCCO4)CC2)nc(C)n1 (stereo not drawn) [Compound 12] | 74% | 79.4 nM | 99% | 15.8 nM |  | 
Cc1cc(COC2CCN(C(C)c3nc4nc(C)sc4cc3F)CC2)cc(C)n1 (stereo not drawn) [Compound 160] | 87% | 39.8 nM | 96% | 12.6 nM |  | 
Cc1cc(COC2CCN(Cc3ccc4sc(C)nc4n3)CC2)cc(C)n1 [Compound 36] | 7% | > 1000 nM | 90% | 1260 nM |  | 
COc1cc(OC2CCN([C@@H](C)c3nc4nc(C)sc4cc3F)CC2)cc(C)n1 (single isomer, unassigned) [Compound 81] | 87% | 31.6 nM | 93% | 1.58 nM |  | 

Reference: patent US20210122763A1, “OGA INHIBITOR COMPOUNDS” (Janssen Pharmaceutica NV, priority 2018, published 2021)
